Data: patent US20240247069A1, “FGFR3 BINDING MOLECULES AND METHODS OF USE THEREOF” (Regeneron Pharmaceuticals, Inc., priority 2023, published 2024)

Key:
Type in all cases: cell-based
Details in all cases: FGF1/heparin, 72 hours
[1] = system: BaF3 cells expressing FGFR3 S249C+V557L; assay: BaF3 cell proliferation, FGFR3 S249C+V557L
Description: (§1) cDNA expressing FGFR3 mutants (S249C, S248C, Y375C, V555M, V555L, S249C+V555M, or S249C+V555L) were synthesized and cloned into pLVX Lenti-viral vector (Thermo Fisher). Viral particles were generated by lipofectamine transfection of LentiX 293T cells using Lenti-X packaging single shots following manufacturer's protocol (Clontech/Takara) and concentrated using Lenti-X concentrator and titer determined using Lenti-X p24 rapid titer kit (Clontech/Takara). BaF3 cells were transduced with virus at ˜0.3 MOI.
(§2) For cell proliferation assays, engineered BaF3/hFGFR3 cells grown in complete medium were washed and plated in IL-3-free culture media±5 μg/ml heparin and 1 nM human FGF1. Cells were plated out at 1×10^5 cells/well into 96-well plates, followed by the addition of 1:3 serially diluted antibodies as indicated in figures. After addition of antibodies, cells were incubated at 37° C. for 72 h followed by the addition of CellTiter-Glo™ (Promega) reagent. The luminescent signal was detected by Envision plate reader (PerkinElmer). Data was analyzed using Prism software (GraphPad). […]

[2] = system: BaF3 cells expressing FGFR3 V557M; assay: BaF3 cell proliferation, FGFR3 V557M
Description: as §1, §2

[3] = system: BaF3 cells expressing FGFR3 V557L; assay: BaF3 cell proliferation, FGFR3 V557L
Description: as §1, §2

[4] = system: BaF3 cells expressing FGFR3 S249C+V557M; assay: BaF3 cell proliferation, FGFR3 S249C+V557M
Description: as §1, §2

AZD4547 [reference compound]
ineffective: effect on growth of BaF3 cells expressing FGFR3 S249C+V557L [1] | effect on growth of BaF3 cells expressing FGFR3 V557M [2] | effect on growth of BaF3 cells expressing FGFR3 V557L [3] | effect on growth of BaF3 cells expressing FGFR3 S249C+V557M [4]
